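Dose response: 5 concentrations. Exposure: 48 h. Format: 96-well plates. Endpoint: linear interpolation; highest concentration if not reached. At the TGI there is no net growth.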

Results on eight compounds are retold here after PubChem BioAssay (NCI).

Test systems include MDA-MB-231 breast; HCT-116 colon; RXF 393 renal; MALME-3M melanoma; SK-MEL-28 melanoma; HT29 colon; IGROV1 ovarian; NCI-H522 lung; TK-10 renal; HOP-92 NSCLC; SNB-75 CNS; SF-539 CNS; T-47D breast; HCT-15 colon; BT-549 breast; A549 NSCLC; MCF7 breast; OVCAR-5 ovarian; LOX IMVI melanoma; SR leukemia.
Assay in all cases: inhibition of tumour cell growth, NCI panel, 48 h

As for `COc1ccc2c(c1)N=C1CSC(c3c(Cl)cccc3[N+](=O)[O-])N1C2` (stereo not given), the TGI in the test with MDA-MB-231 breast, with HCT-116 colon, in the test with RXF 393 renal, in the test with MALME-3M melanoma, in the test on SK-MEL-28 melanoma and in the test with HT29 colon was over 100 µM in each case. The TGI in the test on IGROV1 ovarian is over 100 µM; in the test on NCI-H522 lung it was over 100 µM; with TK-10 renal, over 100 µM; in the test with HOP-92 NSCLC, over 100 µM; in the test on SNB-75 CNS, 98.5 µM; in the test with SF-539 CNS, over 100 µM. Also, the TGI in the test on T-47D breast is over 100 µM; with HCT-15 colon, over 100 µM; with BT-549 breast it was 62.9 µM; in the test on A549 NSCLC it was over 100 µM; in the test with MCF7 breast, over 100 µM; in the test with OVCAR-5 ovarian it was over 100 µM. This compound also returned a TGI in the test with LOX IMVI melanoma of over 100 µM.

Regarding `C/C(=N/NC(=S)NCCc1ccccn1)c1cnccn1`, the TGI is 65.9 µM with SR leukemia; over 100 µM in the test with MDA-MB-231 breast; over 100 µM with HCT-116 colon; over 100 µM in the test on MALME-3M melanoma; over 100 µM in the test on SK-MEL-28 melanoma; over 100 µM with HT29 colon. Besides, the TGI with IGROV1 ovarian, with NCI-H522 lung, in the test on TK-10 renal, in the test on HOP-92 NSCLC, with SNB-75 CNS and in the test on T-47D breast was over 100 µM in each case. Also, the TGI in the test on BT-549 breast was over 100 µM; in the test with A549 NSCLC, over 100 µM; in the test on OVCAR-5 ovarian it was over 100 µM; in the test with LOX IMVI melanoma it was 40.1 µM.

Consider `O=C(NCC(C(=O)OCc1ccccc1)C(=O)OCc1ccccc1)OCc1ccccc1`, for which the TGI with SR leukemia, with RXF 393 renal, in the test on MALME-3M melanoma, in the test on SK-MEL-28 melanoma, in the test on HT29 colon and with IGROV1 ovarian was over 100 µM throughout. Moreover, the TGI in the test on NCI-H522 lung, with TK-10 renal, with HOP-92 NSCLC, with SNB-75 CNS, with SF-539 CNS and with HCT-15 colon was over 100 µM throughout. For the same compound, the TGI in the test with BT-549 breast, in the test with A549 NSCLC, in the test on MCF7 breast and in the test on OVCAR-5 ovarian was over 100 µM in each case.

Take `Cc1cc(C)c(NS(=O)c2cccc(Cl)c2)c(C)c1` (stereo not given): the TGI with SR leukemia, in the test on HCT-116 colon, in the test with RXF 393 renal, in the test on MALME-3M melanoma, with SK-MEL-28 melanoma and in the test on HT29 colon was over 100 µM in each case. Besides, the TGI with TK-10 renal, with HOP-92 NSCLC, in the test with SF-539 CNS, with HCT-15 colon, in the test on BT-549 breast and in the test on A549 NSCLC was over 100 µM each time. Further, the TGI in the test on MCF7 breast and with OVCAR-5 ovarian was over 100 µM each time.

On to `CC[N+]1(C)CCC(O)(/C=C/c2ccc(Cl)cc2)C(C(=O)/C=C/c2ccc(Cl)cc2)C1` (stereo not given), for which the TGI is over 31.5 µM with MDA-MB-231 breast; 29.1 µM in the test with HCT-116 colon; 25.4 µM in the test with RXF 393 renal; 24.3 µM with MALME-3M melanoma; 23.2 µM in the test on SK-MEL-28 melanoma; 14.1 µM with HT29 colon. Also, the TGI in the test with IGROV1 ovarian is over 22.4 µM; in the test with TK-10 renal, 13 µM; with HOP-92 NSCLC it was 9.11 µM; in the test with SNB-75 CNS, 26.7 µM; in the test on SF-539 CNS it was over 20.5 µM; in the test on T-47D breast, 77.4 µM. In addition, the TGI in the test on HCT-15 colon was over 51.6 µM; with BT-549 breast it was 39.3 µM; with A549 NSCLC it was 43 µM; in the test on MCF7 breast, over 36.6 µM; with OVCAR-5 ovarian, over 53.7 µM; with LOX IMVI melanoma it was over 21.6 µM.

Turning to `C/C(=N\NC(=S)NNC(=S)N(C)c1ccccc1)c1ccccn1`, the TGI in the test on MDA-MB-231 breast is over 100 µM; in the test on HCT-116 colon, over 100 µM; in the test with RXF 393 renal, 17 µM; in the test with MALME-3M melanoma it was 20.3 µM; with SK-MEL-28 melanoma it was over 100 µM; with HT29 colon, over 100 µM. Further, the TGI was over 100 µM in the test with TK-10 renal; 26.6 µM in the test on HOP-92 NSCLC; over 100 µM in the test with SNB-75 CNS; 11.1 µM in the test on SF-539 CNS; 72.8 µM in the test with T-47D breast; over 100 µM in the test on HCT-15 colon. Moreover, the TGI in the test with BT-549 breast, with A549 NSCLC, in the test with MCF7 breast and in the test on OVCAR-5 ovarian was over 100 µM each time.

With `COc1cccc(C[C@H]2COC(=O)[C@]2(O)Cc2cccc(OC)c2)c1`, the TGI in the test with SR leukemia, in the test on MDA-MB-231 breast, in the test on HCT-116 colon, in the test on MALME-3M melanoma, in the test with SK-MEL-28 melanoma and in the test on HT29 colon was over 100 µM in each case. The TGI in the test on IGROV1 ovarian, in the test on NCI-H522 lung, in the test with TK-10 renal, with HOP-92 NSCLC, in the test on SNB-75 CNS and in the test with SF-539 CNS was over 100 µM throughout. In addition, the TGI in the test on T-47D breast was 67.9 µM; in the test on HCT-15 colon, over 100 µM; in the test with BT-549 breast, over 100 µM; in the test on A549 NSCLC it was over 100 µM; in the test on OVCAR-5 ovarian it was over 100 µM; in the test on LOX IMVI melanoma it was over 100 µM.

As for `COc1cc(C2(O)c3ccccc3C3=NCCN32)cc(OC)c1OC` (stereo not given), the TGI in the test on SR leukemia, in the test on MDA-MB-231 breast, in the test on HCT-116 colon, in the test with SK-MEL-28 melanoma, in the test on HT29 colon and with TK-10 renal was over 100 µM each time. The TGI in the test with HOP-92 NSCLC, with SNB-75 CNS, in the test with T-47D breast, in the test on HCT-15 colon, in the test on BT-549 breast and with A549 NSCLC was over 100 µM each time. The compound also showed a TGI in the test on LOX IMVI melanoma of over 100 µM.
